Results on nine compounds are retold here after patent US20050032873A1, “3-Amino chroman and 2-amino tetralin derivatives” (Wyeth, priority 2003, published 2005).

Broadly, the EC50 is the concentration that produces a half-maximal response. Low readings indicate higher potency in that assay, high ones lower potency in that assay. One may read the Ki as a measure of affinity in units of concentration, obtained from inhibition or displacement. A word on the IC50: it is the concentration at which inhibition is half-maximal.

In assay [1] the target is T1, cloned human 5-HT1A receptors (Homo sapiens, UniProt P08908).
T1 construct: expressed in transfected cells
T1 sequence (P08908 1-422): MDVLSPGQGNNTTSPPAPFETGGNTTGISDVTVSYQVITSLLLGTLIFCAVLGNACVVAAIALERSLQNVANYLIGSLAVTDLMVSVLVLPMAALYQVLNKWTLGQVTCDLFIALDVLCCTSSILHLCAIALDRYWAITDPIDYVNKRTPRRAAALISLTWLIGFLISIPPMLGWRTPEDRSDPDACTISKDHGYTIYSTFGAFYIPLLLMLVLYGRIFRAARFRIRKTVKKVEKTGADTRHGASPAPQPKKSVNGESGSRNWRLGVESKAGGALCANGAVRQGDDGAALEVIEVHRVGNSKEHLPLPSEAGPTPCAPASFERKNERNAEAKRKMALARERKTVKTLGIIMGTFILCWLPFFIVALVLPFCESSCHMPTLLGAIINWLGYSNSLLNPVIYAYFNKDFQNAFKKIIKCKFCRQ
Kind of assay: 35S-GTPγS binding assay, 5-HT1A function. The format is biochemical. The conditions noted are these: for EC50: agonist potency; for IC50: antagonist potency, reversal of 8-OH-DPAT, read-out: 5-HT1A Function GTPγS IC50. (In general: GTPγS resists hydrolysis and so accumulates on activated G proteins.)
From the text: The agonist or antagonist activity at 5-HT1A receptors was established by using two different assays. […] Agonists produce an increase in binding whereas antagonists produce no increase but rather reverse the effects of the standard agonist 8-OH-DPAT. The test compound's maximum stimulatory effect is represented as the Emax, while its potency is defined by the EC50. The test compound's maximum inhibitory effect is represented as the Imax, while its potency is defined by the IC50. The second assay measured cAMP accumulation upon binding of the ligand to the 5-HT1A receptor. […] The test compound's maximum stimulatory or inhibitory effect is represented as the Emax while its potency is defined by either IC50 for an antagonist or EC50 for an agonist. [^3H]-8-OH-DPAT was used to determine maximum agonist or antagonist response in both functional assays.

A further assay concerns the target T2, 5-HT1A receptor (Homo sapiens, UniProt P08908).
T2 sequence (P08908 1-422): T1 sequence (P08908 1-422)
Kind of assay: 5-HT1A receptor affinity: displacement of [3H] 8-OH-DPAT. The format is binding. More on the design: expressed in transfected cells. The conditions noted are these: for inhibition at 1 µM: read-out: 5-HT1A Receptor Affinity, % @ 1 μM. (In a radioligand displacement assay an active substance lowers the binding of a labelled ligand.)

The next assay concerns the target T3, serotonin transporter (Rattus norvegicus, UniProt P31652).
T3 construct: displace ^3H-paroxetine from male rat cortical membranes; from tissue; host or cells: male rat cortical membranes
In words: 5-HT transporter affinity: displacement of 3H-paroxetine from male rat cortical membranes. The conditions noted are these: displacement of 3H-paroxetine, male rat cortical membranes. Type of assay: binding.

Setting [2] is: maximum stimulatory effect, in brackets after EC50, read-out: 5-HT1A Function GTPγS (Emax).
[3] abbreviates: read-out: 5-HT Transporter Affinity Ki.
Where [4] appears, read: maximum inhibitory effect, in brackets after IC50, read-out: 5-HT1A Function GTPγS (Imax).
Where [5] appears, read: maximum inhibitory effect, in brackets after IC50.

Like-named read-outs stand apart in the source and are kept apart here.

T3 sequence (P31652 whole entry): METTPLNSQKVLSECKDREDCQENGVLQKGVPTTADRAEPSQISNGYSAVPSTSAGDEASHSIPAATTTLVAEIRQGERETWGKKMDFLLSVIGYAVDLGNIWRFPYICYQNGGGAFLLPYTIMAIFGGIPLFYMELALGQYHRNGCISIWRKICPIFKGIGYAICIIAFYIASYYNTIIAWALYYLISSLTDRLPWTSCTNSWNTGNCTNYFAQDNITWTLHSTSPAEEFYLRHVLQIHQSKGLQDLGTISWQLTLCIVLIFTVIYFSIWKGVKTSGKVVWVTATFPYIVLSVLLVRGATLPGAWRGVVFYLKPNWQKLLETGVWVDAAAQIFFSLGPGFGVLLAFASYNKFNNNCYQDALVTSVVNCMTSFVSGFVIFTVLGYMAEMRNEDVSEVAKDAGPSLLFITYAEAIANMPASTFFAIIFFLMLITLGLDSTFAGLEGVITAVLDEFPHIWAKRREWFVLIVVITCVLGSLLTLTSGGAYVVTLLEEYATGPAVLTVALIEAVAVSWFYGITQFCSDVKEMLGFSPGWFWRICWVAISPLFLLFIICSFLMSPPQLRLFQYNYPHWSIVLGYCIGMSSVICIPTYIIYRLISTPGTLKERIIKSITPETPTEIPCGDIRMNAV

In the case of `COc1cccc2c1CC(N[C@H]1CC[C@H](c3c[nH]c4ccc(C#N)cc43)CC1)CO2` (relative stereo) [Compound 180b, 3-[(1,4-trans)-4-(5-Methoxy-chroman-3-ylamino)-cyclohexyl]-1H-indole-5-carbonitrile], the EC50 in assay [1] amounted to 925 nM. For the same compound, the Emax in assay [1] (setting [2]) worked out at 50.5%. Further, on 5-HT1A receptor, the inhibition at 1 µM worked out at 20%. Also, on serotonin transporter (5-HT Transporter Affinity Ki (nM)), the Ki is 2.46 nM.
The compound `COc1cccc2c1CC(N[C@H]1CC[C@@H](c3c[nH]c4ccc(F)cc43)CC1)CO2` (relative stereo) [Compound 181a, cis-N-[4-(5-fluoro-1H-indol-3-yl)cyclohexyl]-5-methoxychroman-3-amine] showed an EC50 in assay [1] of 40000 nM. Further, the Emax in assay [1] (setting [2]) stood at 79.4%. For the same compound, on 5-HT1A receptor, the inhibition at 1 µM turned out to be 37%. Further, the Ki on serotonin transporter (setting [3]) amounted to 26 nM.
For the compound `COc1cccc2c1CC(N[C@H]1CC[C@H](c3c[nH]c4ccc(F)cc43)CC1)CO2` (relative stereo) [Compound 181b, trans-N-[4-(5-fluoro-1H-indol-3-yl)cyclohexyl]-5-methoxychroman-3-amine], the IC50 in assay [1] was determined as 115 nM. In addition, the Emax in assay [1] (setting [4]) is 44.6%. For the same compound, on 5-HT1A receptor, the inhibition at 1 µM turned out to be 46%. The Ki at serotonin transporter (setting [3]) turned out to be 3.07 nM.
For the compound `CC(CCc1c[nH]c2c(F)cc(F)cc12)N(CC1CC1)C1COc2c(F)ccc(C(N)=O)c2C1` (single isomer, unassigned) [Compound 154a, 3-{(cyclopropylmethyl)[3-(5,7-difluoro-1H-indol-3-yl)-1-methylpropyl]amino}-8-fluorochromane-5-carboxamide], the IC50 in assay [1] turned out to be 235 nM. The same compound came in with a 5-HT1A Function GTPγS (Imax) in assay [1] (setting [5]) of 100%. Further, the Ki at 5-HT1A receptor (displacement of [3H] 8-OH-DPAT, CHO cells stably transfected with human 5-HT1A receptors, read-out: 5-HT1A Receptor Affinity Ki) worked out at 6.35 nM; on serotonin transporter (setting [3]), 65 nM.
In the case of `CC(CCc1c[nH]c2c(F)cc(F)cc12)N(CC1CC1)C1COc2c(F)ccc(C(N)=O)c2C1` (single isomer, unassigned) [Compound 154d, 3-{(cyclopropylmethyl)[3-(5,7-difluoro-1H-indol-3-yl)-1-methylpropyl]amino}-8-fluorochromane-5-carboxamide], the concentration for half-maximal inhibition (IC50) in assay [1] is 7070 nM. Further, the 5-HT1A Function GTPγS (Imax) in assay [1] (setting [5]) was 71%. Besides, at 5-HT1A receptor, the inhibition at 1 µM came out at 2%. The Ki on serotonin transporter (setting [3]) is 4.81 nM.
Regarding `NC(=O)c1ccc(F)c2c1C[C@@H](NCC1CCc3c([nH]c4ccc(F)cc34)C1)CO2` (single isomer, unassigned; (+)) [Compound 179a], the IC50 in assay [1] was 9030 nM. Moreover, the Emax in assay [1] (setting [4]) came to 100%. The inhibition at 1 µM at 5-HT1A receptor is 48%. Further, the Ki at serotonin transporter (setting [3]) amounted to 33.2 nM.
For the compound `NC(=O)c1ccc(F)c2c1CC(N(CC1CCc3[nH]c4ccc(F)cc4c3C1)C1CCC1)CO2` (single isomer, unassigned; (-)) [Compound 174a, (−)-3-{cyclobutyl[(6-fluoro-2,3,4,9-tetrahydro-1H-carbazol-3-yl)methyl]amino}-8-fluorochromane-5-carboxamide], in assay [1], the IC50 amounted to 8000 nM. In assay [1] (setting [5]), this compound had a 5-HT1A Function GTPγS (Imax) of 50%. In addition, the inhibition at 1 µM at 5-HT1A receptor is 49%. The Ki at serotonin transporter (setting [3]) came out at 855 nM.
With `CC(C1CC1)N(CCCc1c[nH]c2ccc(F)cc12)C1COc2c(F)ccc(C(N)=O)c2C1` (stereo not drawn) [Compound 6, 3-{(1-cyclopropylethyl)[3-(5-fluoro-1H-indol-3-yl)propyl]amino}-8-fluorochromane-5-carboxamide], in assay [1], the IC50 worked out at 4840 nM. Further, in assay [1] (setting [4]), the Emax was determined as 87%. In addition, on 5-HT1A receptor, the inhibition at 1 µM was 30%. Besides, the Ki on serotonin transporter (setting [3]) came to 18.9 nM.
In the case of `O=C(O)c1ccc(F)c2c1CC(N(CCCc1c[nH]c3ccc(F)cc13)C1CCC1)CO2` (stereo not drawn) [Compound 56, 3-{cyclobutyl[3-(5-fluoro-1H-indol-3-yl)propyl]amino}-8-fluorochromane-5-carboxylic acid], the IC50 in assay [1] is 5000 nM. Moreover, in assay [1] (setting [4]), the Emax worked out at 50%. Besides, the inhibition at 1 µM on 5-HT1A receptor worked out at 4%. Besides, the Ki at serotonin transporter (setting [3]) turned out to be 499 nM.
